Square brackets hold non-standard residues; d marks the D form. Ends that are not written are not given here. pY = N[C@@H](Cc1ccc(OP(=O)(O)O)cc1)C(=O)O
Columns and labels:
Format in all cases: cell-based
[1] = test system: human primary skin fibroblasts; test: Cell proliferation (automated cell counting), with or without phototreatment; conditions: for enhancement of PT-induced cell proliferation: human primary fibroblasts, 48 hours after irradiation
Experimental: Primary cultures of human fibroblasts were obtained from normal human skin. Collection of skin biopsy punches, 4mm diameter, from volunteer donors was routinely performed in the Dermatology Service of the Ramon y Cajal University Hospital, Madrid, Spain, following the regulations of the hospital ethics committee for human research, eligible patients providing written informed consent.
Skin samples were transferred to the laboratory and maintained at 4 °C in DMEM medium (Gibco) with 10x Penicilin/Streptomycin and 10x Aphotericin B until processed, not exceeding 24h. Then, the subcutaneous layer was removed using scalpels, and skin biopsies were cut in small pieces of 1-4 mm^2. In order to obtain primary fibroblasts, skin pieces were incubated in 1mg/ml of collagenase A enzyme (Roche) solution for 4 hours at 37 °C, in mild agitation in order to help cell dissociation.
The supernatant containing the fibroblasts was vigorously pipetted and diluted in DMEM medium supplemented with 10% FCS, 2 mM L-Glutamine, Penicilin/Streptomicin (100 U/ml / 100 µg/ml) and 2.5 µg/ml amphotericin B and centrifuged for five minutes at 1500 RPM. The pellet was resuspended in complete DMEM medium and the fibroblasts were seeded in a maximum density of 1 million cells per ml using a 24 well plate and routinely grown at 37°C in a humidified atmosphere containing CO2 5%. 24 hours later, medium was removed to eliminate all detached cells. The cells were passaged when they reached 70-80% confluency, in order to prevent differentiation. The primary culture reached appropriate confluence after 8 to 10 days, and the derivative subcultures were splitted 1:4 once a week. After 10 to 20 passages, cells undergo senescence.
Endogenous protoporphyrin IX (PpIX)-dependent photodynamic treatments (PT) were routinely performed on exponentially growing cells at 60% of confluence, as well as in ex vivo cultured hair follicles (HF) (Carrasco E et al. Methods 15:109, 2016; Calvo-Sanchez MI et al. Sci. Rep.9:4509, 2019). To that end, cells and HFs were incubated for 2-4 hours, normally 2 hours, with 0.1 mM of a PpIX metabolic precursor (typically, aminolevulinic acid ALA, or the ALA methylated derivative methyl aminolevulinate mALA) in the corresponding medium in the absence of serum or growth factors. Immediately, approximately 1 minute, after the incubation step the samples were further irradiated 2-15 min, normally between 8 and 10 minutes, with a red-light emitting diode source with an emission peak at 634 nm bandwidth, with a total light dose of 2-10 J/cm^2, normally 4 J/cm^2 (Carrasco E et al. Methods 15:109, 2016; Calvo-Sanchez MI et al. Sci. Rep.9:4509, 2019). Immediately after irradiation, approx. 1 minute after, samples were washed in PBS, fresh medium was added, and were further routinely grown at 37°C in a humidified atmosphere containing CO2 5%. When required, activators of cSrc kinase or inhibitors of Eng function (see below) were added, alone or in combination, in the fresh medium used immediately after irradiation, and samples were subsequently incubated for the indicated times. […] Additionally, total controls in strict dark conditions (no PpIX precursor, no light) were evaluated for each biological model, although this control was not routinely used in experimental series since ambient light is an unavoidable contaminant, and the light control is the most adequate in this experimental design. […]

[2] = test system: mouse E14 embryonic stem cells; test: as above; conditions: for enhancement of PT-induced cell proliferation: PT (mALA and red light) combined with YEEI phosphopeptide and/or S-Eng, 48 hours after irradiation
Experimental: (§1) E14 cell line is a derivative of mice embryonic stem cells (ES) obtained from the Inner Cell Mass of 129/Ola mouse strain blastocyst. E14 cells were grown on 0,1% gelatin-coated flasks in GMEM supplemented with 10% FCS tested for stem cells, 0.1 mM mixture of Non Essential Amino acids (NEAA, composed by Glycine, L-Alanine, L-Asparagine, L-Aspartic Acid, L-Glutamic acid, L-Proline and L-Serine), 2 mM L-Glutamine, 1 mM sodium pyruvate, 0.05 mM β-mercaptoethanol, Penicilin/Streptomicin (100 U/ml / 100 µg/ml) and 2.5 µg/ml amphotericin B (all from Gibco) and 1,000 U/ml LIF (Millipore), and splitted 1:8 to 1:10 every 2-3 days using Trypsin-EDTA (Invitrogen) (Smith, 1991; Cambray et al, 2012). Cells were maintained at 37°C in a 5% CO2 humidified atmosphere. The medium was changed on alternative days.
Endogenous protoporphyrin IX (PpIX)-dependent photodynamic treatments (PT) were routinely performed on exponentially growing cells at 60% of confluence, as well as in ex vivo cultured hair follicles (HF) (Carrasco E et al. Methods 15:109, 2016; Calvo-Sanchez MI et al. Sci. Rep.9:4509, 2019). […] Additionally, total controls in strict dark conditions (no PpIX precursor, no light) were evaluated for each biological model, although this control was not routinely used in experimental series since ambient light is an unavoidable contaminant, and the light control is the most adequate in this experimental design.
(§2) Here the functional activation of the cSrc kinase has been specifically associated with the phosphorilation of the Tyr419 residue (or equivalent) of the cSrc protein (Espada J and Martin-Perez J. Int Rev Cell Mol Biol 331:82, 2017). […] The biological activity of each YEEI phosphopeptide batch was evaluated by immunoblot detection of cSrc-Tyr419 levels in protein extracts obtained from treated cell cultures (see Figure 1) […]

cSrc kinase = test: cSrc Tyr419 phosphorylation by immunoblot in treated cell cultures; conditions: mouse E14 embryonic stem cells; peptide 100 nM; Figure 1A
Experimental: as §1, §2

[3] = test system: ex vivo grown human hair follicles; test: Activation of ex vivo cultured hair follicles (hair bulb area image analysis, histology, Ki67); conditions: for proliferation and differentiation of the hair bulb area (hair follicle activation): combination of PT (mALA and red light), 24 hours after treatments
Experimental: Human hair follicles were obtained from human scalp samples taken from the occipital skin of volunteer donors during a hair transplant procedure. Eligible patients provided written informed consent, and the Ethical committee of the Ramon y Cajal Hospital approved this procedure.
Follicular units (FUs) were dissected using scalpels under a magnifier, and the ones in resting phase (telogen) were selected. Those FUs were transferred to the laboratory and maintained at 4 °C until processed in Williams' medium E (Sigma) supplemented with 10x Penicilin/Streptomycin, 10x Aphotericin B, and 2 mM L-Glutamin (all from Gibco), 5 µg/ml Insulin, 5 µg/ml transferring, 20 pM T3 hormone, 0.083 µg/ml cholera toxin and 0.4 µg/ml hydrocortisone. FUs can be stored in complete Williams' medium at 4 °C for approximately 5 days without significant loss of the mini organ function. FU cultures were maintained at 37°C in a 5% CO2 humidified atmosphere.
Endogenous protoporphyrin IX (PpIX)-dependent photodynamic treatments (PT) were routinely performed on exponentially growing cells at 60% of confluence, as well as in ex vivo cultured hair follicles (HF) (Carrasco E et al. Methods 15:109, 2016; Calvo-Sanchez MI et al. Sci. Rep.9:4509, 2019). To that end, cells and HFs were incubated for 2-4 hours, normally 2 hours, with 0.1 mM of a PpIX metabolic precursor (typically, aminolevulinic acid ALA, or the ALA methylated derivative methyl aminolevulinate mALA) in the corresponding medium in the absence of serum or growth factors. Immediately, approximately 1 minute, after the incubation step the samples were further irradiated 2-15 min, normally between 8 and 10 minutes, with a red-light emitting diode source with an emission peak at 634 nm bandwidth, with a total light dose of 2-10 J/cm^2, normally 4 J/cm^2 (Carrasco E et al. Methods 15:109, 2016; Calvo-Sanchez MI et al. Sci. Rep.9:4509, 2019). […] Additionally, total controls in strict dark conditions (no PpIX precursor, no light) were evaluated for each biological model, although this control was not routinely used in experimental series since ambient light is an unavoidable contaminant, and the light control is the most adequate in this experimental design.
For the quantification of the number of cells in cell cultures after different treatments, a Bio-Rad TC20™ automated cell counter was used following the instructions of the manufacturer. […] Image acquisition was performed using a Nikon Eclipse Ci LED-fluorescence microscope using a 2x objective and a 0.55x Reduction Lens adapter coupled to a Jenoptik PROGRES GRYPHAX® SUBRA Super HD camera and suited Version 1.1.8.153 image software pack. […] Total hair bulb area in high resolution images of whole hair follicles was spotted and quantified using suited free FIJI software packs (https://fiji.sc/). […]

Row | Molecule | enhancement of PT-induced cell proliferation ([1]; PT (mALA and red light) combined with YEEI phosphopeptide and/or Apt1 or Apt2, Figure 5) | enhancement of PT-induced cell proliferation ([1]; PT (mALA and red light) combined with YEEI phosphopeptide and/or Apt1 or Apt2, Figure 5, listed as YEEI peptide) | enhancement of PT-induced cell proliferation ([1]; PT (mALA and red light) combined with YEEI phosphopeptide and/or siRNA of SEQ ID NO 2, Figure 4) | enhancement of PT-induced cell proliferation ([1]; PT (mALA and red light) combined with YEEI phosphopeptide and/or siRNA of SEQ ID NO 2, Figure 4, listed as YEEI peptide) | induction of cell proliferation ([1]; human primary skin fibroblasts, 48 hours after treatments, peptide alone, Figure 1B) | induction of cell proliferation ([2]; 48 hours after treatments, peptide alone, Figure 1B) | enhancement of PT-induced cell proliferation ([2]; Figure 3) | enhancement of PT-induced cell proliferation ([2]; Figure 3, listed as YEEI peptide) | Tyr419 cSRC phosphorilation (cSrc kinase) | proliferation and differentiation of the hair bulb area (hair follicle activation) ([3]; YEEI phosphopeptide and Apt1 or Apt2, Figure 9) | proliferation and differentiation of the hair bulb area (hair follicle activation) ([3]; YEEI phosphopeptide and siRNA of SEQ ID NO 2, Figure 8) | time after PT at which HF activation is evident ([3]; PT using mALA and red light, compared to control, Figure 6) [days] | time after treatment at which activation occurs ([3]; photodynamic treatment with mALA and red light, Figures 6 and 7)
1 | Glu-Pro-Gln-Tyr(PO3H2)-Glu-Glu-Ile-Pro-Ile-Tyr-Leu (EPQ[pY]EEIPIYL) [YEEI phosphopeptide] | significantly enhanced | markedly increased | significantly enhanced | markedly increased | statistically significant induction | statistically significant induction | significantly enhanced | markedly enhanced | induced | significantly promotes | significantly promotes | – | –
2 | COC(=O)CCC(=O)CN [mALA, methyl aminolevulinate] | – | – | – | – | – | – | – | – | – | – | – | 5 | approximately 5 days
